Paper doi:10.1101/2020.08.26.267799v1 (biorxiv, 2020)

Biological target: Human insulin (HI) (Homo sapiens, UniProt P01308)
Assay: ITC, insulin titrated into CBBG, one-site model
Assay type: binding

Sequence of Human insulin (HI) (P01308 25-54): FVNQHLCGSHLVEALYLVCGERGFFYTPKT
Sequence of Human insulin (HI) (P01308 90-110): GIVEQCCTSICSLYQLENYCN

## CCOc1ccc(Nc2ccc(/C(=C3C=C/C(=[N+](/CC)Cc4cccc(S(=O)(=O)[O-])c4)C=C/3C)c3ccc(N(CC)Cc4cccc(S(=O)(=O)O)c4)cc3C)cc2)cc1 [Coomassie Brilliant Blue G-250]
  Kd: 12.5 µM
